# Source: patent publication US8324132B2, “Mixture and method for controlling undesired vegetation” (E. I. du Pont de Nemours and Company, priority 2010, dated 2012)
# Experiments:
# Type in all cases: in vivo
# [1] = test system: rescuegrass (Bromus catharticus Vahl., BROCA); test: Test E field plots: rescuegrass control
# Source text: (§1) In the following Tests C through E, Colby's equation was used to calculate the expected additive herbicidal effect of nicosulfuron and glyphosate alone and in combination. Colby's equation (S. R. Colby, “Calculating Synergistic and Antagonistic Responses of Herbicide Combinations,” Weeds, 15(1), pp 20-22 (1967)) calculates the expected additive effect of herbicidal mixtures, and for two active ingredients is of the form: Pa+b=Pa+Pb−(PaPb/100) • wherein Pa±b is the percentage effect of the mixture expected from additive contribution of the individual components, • Pa is the observed percentage effect of the first active ingredient at the same use rate as in the mixture, and • Pb is the observed percentage effect of the second active ingredient at the same use rate as in the mixture.
# (§2) For mixtures comprising nicosulfuron, metsulfuron-methyl and glyphosate the expected herbicidal effect was calculated based on the combination of nicosulfuron and metsulfuron-methyl providing observed herbicidal effect Pa and glyphosate providing observed herbicidal effect Pb in the Colby Equation. Plant responses to components Pa and Pb range from zero to 100% where zero is no observed response and 100% is complete response (i.e. plant death). Mixtures of herbicides were tested for their ability to express synergism (enhanced weed control) or antagonism (improved tolerance) at several locations in the United States. In the following Tests glyphosate was provided by the potassium salt of glyphosate. Crop phytotoxic response (% phyto) and weed control efficacy (% control) were visually evaluated using a 0-100 scale where zero is no visible response and 100 is plant death. In the following Tables “DAA” means days after application and “g a.i./ha” means grams active ingredient per hectare.
# (§3) Herbicides and herbicide mixtures were applied to field plots of dormant bermudagrass (Cynodon dactylon, CYNDA) near Eatonton, Ga. on Mar. 20, 2010 and Decatur, Tex. on Mar. 30, 2010 to control rescuegrass (Bromus catharticus Vahl., BROCA). All herbicides and herbicide mixtures were formulated in water containing 1.0% (vol/vol) crop oil concentrate and applied as a spray mixture to bermudagrass using a backpack sprayer pressurized with CO2.
# [2] = test system: bermudagrass (Cynodon dactylon, CYNDA); test: Test C field plots: bermudagrass phytotoxic response
# Source text: as §1, §2
# (§4) Herbicides and herbicide mixtures were applied to field plots of bermudagrass (Cynodon dactylon, CYNDA) near De Leon, Tex., Yukon, Okla. and Burlington, Okla. to control field sandbur (Cenchrus incertus M. A. Curtis, CCHIN) approximately one week after the bermudagrass had been cut and harvested. All herbicides and herbicide mixtures were formulated in water containing 0.25% (vol/vol) non-ionic surfactant (“NIS” provided by INDUCE®) and applied as a spray mixture to bermudagrass stubble using a backpack sprayer pressurized with CO2.
# [3] = test system: dormant bermudagrass (Cynodon dactylon, CYNDA); test: Test E field plots: dormant bermudagrass phytotoxic response
# Source text: as §1, §2, §3
# [4] = test system: knotroot foxtail (Setaria geniculata [Lam.] Beauv., SETGE); test: Test D field plots: knotroot foxtail control
# Source text: as §1, §2
# (§5) Herbicides and herbicide mixtures were applied to field plots of bermudagrass (Cynodon dactylon, CYNDA) near Lena, Miss. and Paris, Ark. to control knotroot foxtail (Setaria geniculata [Lam.] Beauv., SETGE) approximately one week after the bermudagrass had been cut and harvested. All herbicides and herbicide mixtures were formulated in water containing 0.25% (vol/vol) non-ionic surfactant (“NIS” provided by INDUCE®) and applied to bermudagrass stubble as a spray mixture using a backpack sprayer pressurized with CO2.
# [5] = test system: bermudagrass (Cynodon dactylon, CYNDA); test: Test D field plots: bermudagrass phytotoxic response
# Source text: as §1, §2, §5
# [6] = test system: field sandbur (Cenchrus incertus M. A. Curtis, CCHIN); test: Test C field plots: field sandbur control
# Source text: as §1, §2, §4
# [7] = glyphosate 144 g a.i./ha, 30 DAA, Decatur, TX
# [8] = glyphosate 144 g a.i./ha, 45 DAA, Eatonton, GA
# [9] = glyphosate 144 g a.i./ha, 60 DAA, Decatur, TX
# [10] = glyphosate 289 g a.i./ha, 30 DAA, Decatur, TX
# [11] = glyphosate 289 g a.i./ha, 45 DAA, Eatonton, GA
# [12] = glyphosate 289 g a.i./ha, 60 DAA, Decatur, TX
# [13] = glyphosate 96 g a.i./ha, 15 DAA, De Leon, TX
# [14] = glyphosate 96 g a.i./ha, 30 DAA, Yukon, OK
# [15] = glyphosate 96 g a.i./ha, 90 DAA, Yukon, OK and Burlington, OK
# [16] = glyphosate 192 g a.i./ha, 15 DAA, De Leon, TX
# [17] = glyphosate 192 g a.i./ha, 30 DAA, Yukon, OK
# [18] = glyphosate 192 g a.i./ha, 90 DAA, Yukon, OK and Burlington, OK
# [19] = glyphosate 289 g a.i./ha, 15 DAA, De Leon, TX
# [20] = glyphosate 289 g a.i./ha, 30 DAA, Yukon, OK
# [21] = glyphosate 289 g a.i./ha, 90 DAA, Yukon, OK and Burlington, OK
# [22] = glyphosate 96 g a.i./ha, 30 DAA, Paris, AR
# [23] = glyphosate 96 g a.i./ha, 60 DAA, Paris, AR
# [24] = glyphosate 192 g a.i./ha, 15 DAA, Lena, MS
# [25] = glyphosate 192 g a.i./ha, 30 DAA, Paris, AR
# [26] = glyphosate 192 g a.i./ha, 60 DAA, Paris, AR
# [27] = glyphosate 289 g a.i./ha, 15 DAA, Lena, MS
# [28] = glyphosate 289 g a.i./ha, 30 DAA, Paris, AR
# [29] = glyphosate 289 g a.i./ha, 60 DAA, Paris, AR
# [30] = nicosulfuron 39 g a.i./ha, 30 DAA, Decatur, TX
# [31] = nicosulfuron 39 g a.i./ha, 45 DAA, Eatonton, GA
# [32] = nicosulfuron 39 g a.i./ha, 60 DAA, Decatur, TX
# [33] = nicosulfuron 39 g a.i./ha, 15 DAA, De Leon, TX
# [34] = nicosulfuron 39 g a.i./ha, 30 DAA, Yukon, OK
# [35] = nicosulfuron 39 g a.i./ha, 90 DAA, Yukon, OK and Burlington, OK
# [36] = nicosulfuron 39 g a.i./ha, 30 DAA, Paris, AR
# [37] = nicosulfuron 39 g a.i./ha, 60 DAA, Paris, AR
smiles,measurement,setting,value
"O=C(O)CNCP(=O)(O)O [Glyphosate, glyphosate]",BROCA (% control) Observed,"[1]; glyphosate 144 g a.i./ha, 15 DAA, Eatonton, GA",0%
same,BROCA (% control) Observed,[1]; [7],0%
same,BROCA (% control) Observed,[1]; [8],88%
same,BROCA (% control) Observed,[1]; [9],0%
same,BROCA (% control) Observed,"[1]; glyphosate 289 g a.i./ha, 15 DAA, Eatonton, GA",87%
same,BROCA (% control) Observed,[1]; [10],0%
same,BROCA (% control) Observed,[1]; [11],95%
same,BROCA (% control) Observed,[1]; [12],0%
same,CYNDA (% phyto) Observed,[2]; [13],0%
same,CYNDA (% phyto) Observed,[2]; [14],0%
same,CYNDA (% phyto) Observed,[2]; [15],0%
same,CYNDA (% phyto) Observed,[2]; [16],5%
same,CYNDA (% phyto) Observed,[2]; [17],0%
same,CYNDA (% phyto) Observed,[2]; [18],0%
same,CYNDA (% phyto) Observed,[2]; [19],13%
same,CYNDA (% phyto) Observed,[2]; [20],0%
same,CYNDA (% phyto) Observed,[2]; [21],0%
same,CYNDA (% phyto) Observed,[3]; [7],0%
same,CYNDA (% phyto) Observed,[3]; [8],0%
same,CYNDA (% phyto) Observed,[3]; [9],0%
same,CYNDA (% phyto) Observed,[3]; [10],0%
same,CYNDA (% phyto) Observed,[3]; [11],0%
same,CYNDA (% phyto) Observed,[3]; [12],0%
same,SETGE (% control) Observed,[4]; [22],7%
same,SETGE (% control) Observed,[4]; [23],3%
same,SETGE (% control) Observed,[4]; [24],79%
same,SETGE (% control) Observed,[4]; [25],28%
same,SETGE (% control) Observed,[4]; [26],18%
same,SETGE (% control) Observed,[4]; [27],84%
same,SETGE (% control) Observed,[4]; [28],40%
same,SETGE (% control) Observed,[4]; [29],20%
same,CYNDA (% phyto) Observed,[5]; [22],0%
same,CYNDA (% phyto) Observed,[5]; [23],0%
same,CYNDA (% phyto) Observed,[5]; [24],18%
same,CYNDA (% phyto) Observed,[5]; [25],2%
same,CYNDA (% phyto) Observed,[5]; [26],0%
same,CYNDA (% phyto) Observed,[5]; [27],20%
same,CYNDA (% phyto) Observed,[5]; [28],11%
same,CYNDA (% phyto) Observed,[5]; [29],0%
same,CCHIN (% control) Observed,[6]; [13],60%
same,CCHIN (% control) Observed,[6]; [14],2%
same,CCHIN (% control) Observed,[6]; [15],55%
same,CCHIN (% control) Observed,[6]; [16],74%
same,CCHIN (% control) Observed,[6]; [17],18%
same,CCHIN (% control) Observed,[6]; [18],63%
same,CCHIN (% control) Observed,[6]; [19],89%
same,CCHIN (% control) Observed,[6]; [20],35%
same,CCHIN (% control) Observed,[6]; [21],75%
"COc1cc(OC)nc(NC(=O)NS(=O)(=O)c2ncccc2C(=O)N(C)C)n1 [Nicosulfuron, nicosulfuron]",BROCA (% control) Observed,"[1]; nicosulfuron 39 g a.i./ha, 15 DAA, Eatonton, GA",10%
same,BROCA (% control) Observed,[1]; [30],63%
same,BROCA (% control) Observed,[1]; [31],79%
same,BROCA (% control) Observed,[1]; [32],53%
same,CYNDA (% phyto) Observed,[2]; [33],5%
same,CYNDA (% phyto) Observed,[2]; [34],10%
same,CYNDA (% phyto) Observed,[2]; [35],0%
same,CYNDA (% phyto) Observed,[3]; [30],0%
same,CYNDA (% phyto) Observed,[3]; [31],0%
same,CYNDA (% phyto) Observed,[3]; [32],0%
same,SETGE (% control) Observed,[4]; [36],28%
same,SETGE (% control) Observed,[4]; [37],10%
same,CYNDA (% phyto) Observed,[5]; [36],3%
same,CYNDA (% phyto) Observed,[5]; [37],0%
same,CCHIN (% control) Observed,[6]; [33],65%
same,CCHIN (% control) Observed,[6]; [34],78%
same,CCHIN (% control) Observed,[6]; [35],88%
